In ChEMBL document CHEMBL4665700, “Cytotoxic Bufadienolides from the Leaves of Melianthus major” (J Nat Prod, 2020):
Active and inactive are the calls of the source. The calls are words filed in the database; no cut-off is given here.

Legend:
Format in all cases: functional
[1] = test system: MCF7; assay: Cytotoxicity against human MCF7 cells assessed as reduction in cell viability after 72 hrs by resazurin dye-based fluorescence assay; conditions: MCF7, 72 h
[2] = test system: CCRF-CEM; assay: Cytotoxicity against human CCRF-CEM cells assessed as reduction in cell viability after 72 hrs by resazurin dye-based fluorescence assay
[3] = test system: ADR5000 cell line; assay: Cytotoxicity against human CEM/ADR5000 cells assessed as reduction in cell viability after 72 hrs by resazurin dye-based fluorescence assay; conditions: ADR5000, 72 h
[4] = test system: MCF7; assay: Cytotoxicity against human MCF7 cells assessed as reduction in cell viability at 10 uM after 72 hrs by resazurin dye-based fluorescence assay
[5] = test system: CCRF-CEM; assay: Cytotoxicity against human CCRF-CEM cells assessed as reduction in cell viability at 10 uM after 72 hrs by resazurin dye-based fluorescence assay
[6] = test system: ADR5000 cell line; assay: Cytotoxicity against human CEM/ADR5000 cells assessed as reduction in cell viability at 10 uM after 72 hrs by resazurin dye-based fluorescence assay

SMILES	IC50 [1] [nM]	IC50 [2] [nM]	IC50 [3] [nM]	Activity [4]	Activity [5]	Activity [6]
CC(=O)O[C@H]1C[C@]2(C=O)[C@H]3CC[C@]4(C)[C@@H](c5ccc(=O)oc5)CC[C@]4(O)[C@@H]3CC[C@]2(O)C[C@H]1OC(C)=O	3500	500	500			
CC(=O)OC[C@]12[C@H]3C[C@H]4C[C@]1(CC[C@@H]1[C@@H]2CC[C@]2(C)[C@@H](c5ccc(=O)oc5)CC[C@]12O)OC(C)(O4)O3				inactive	inactive	inactive
C[C@@]12O[C@H]3C[C@@H](O1)[C@]1(C=O)[C@H]4CC[C@]5(C)[C@@H](c6ccc(=O)oc6)[C@@H](O)C[C@]5(O)[C@@H]4CC[C@@]1(C3)O2	3100	600	800			
CC(=O)O[C@H]1C[C@]2(C=O)[C@H]3CC[C@]4(C)[C@@H](c5ccc(=O)oc5)CC[C@]4(O)[C@@H]3CC[C@]2(OC(C)=O)C[C@H]1OC(C)=O	300	100	100			
COc1cccc2c1C(=O)c1c(O)c3c(c(O)c1C2=O)C[C@@](O)(C(=O)CO)C[C@@H]3O[C@H]1C[C@H](N)[C@H](O)[C@H](C)O1 [DOXORUBICIN]	180	20				
C[C@@]12O[C@H]3C[C@@H](O1)[C@]1(C=O)[C@H]4CC[C@]5(C)[C@@H](c6ccc(=O)oc6)CC[C@]5(O)[C@@H]4CC[C@@]1(C3)O2	1000	200	200			
CC(=O)OC[C@]12[C@@H]3OC4(C)O[C@H](C[C@]1(CC[C@@H]1[C@@H]2CC[C@]2(C)[C@@H](c5ccc(=O)oc5)CC[C@]12O)O4)[C@H]3O				inactive	inactive	inactive
CC(=O)OC[C@]12[C@@H]3OC4(C)O[C@H](C[C@]1(CC[C@@H]1[C@@H]2CC[C@]2(C)[C@@H](c5ccc(=O)oc5)[C@H]5O[C@H]5[C@]12O)O4)[C@H]3OC(C)=O				inactive	inactive	inactive
C[C@@]12O[C@H]3C[C@@H](O1)[C@]1(C=O)[C@H]4CC[C@@]5(C)[C@@H]([C@@H]4CC[C@@]1(C3)O2)[C@@H]1O[C@@H]1[C@@H]5c1ccc(=O)oc1	4500	1600	1600			
CC(=O)O[C@H]1[C@H]2O[C@@]3(C)O[C@@H]1C[C@]1(CC[C@H]4[C@H]5[C@@H]6O[C@@H]6[C@H](c6ccc(=O)oc6)[C@@]5(C)CC[C@@H]4[C@@]21C=O)O3	4300	1600	1800			
